# Test system: SEM cells
# Test: cell viability relative to DMSO control; higher = less cytotoxic
# Conditions: 48 h
# Procedure, shortened: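 Viability is expressed as a percentage of DMSO wells within each plate, and cell-free wells serve as background. Seeding densities in the 1536-well plates (5 μl) were 500 cells/well for NOMO1 or SEM leukemia cells and 1000 cells/well for P12-Ichikawa. Each line was adapted for at least four passages in each medium. Library compounds in DMSO were pin-dosed at 47 μM to 0.79 nM (11 points, threefold), and CellTiter-Glo One luminescence was read after 48 h at 37°C.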
# [1] = HPLM + 10% dialyzed FBS, 0.000781 µM
# [2] = HPLM + 10% dialyzed FBS, 0.00234 µM
# [3] = HPLM + 10% dialyzed FBS, 0.00702 µM
# [4] = HPLM + 10% dialyzed FBS, 0.0211 µM
# [5] = HPLM + 10% dialyzed FBS, 0.0632 µM
# [6] = HPLM + 10% dialyzed FBS, 0.19 µM
# [7] = HPLM + 10% dialyzed FBS, 0.569 µM
# [8] = HPLM + 10% dialyzed FBS, 1.71 µM
# [9] = HPLM + 10% dialyzed FBS, 5.12 µM
# [10] = HPLM + 10% dialyzed FBS, 15.4 µM
# [11] = HPLM + 10% dialyzed FBS, 46.1 µM
# [12] = RPMI 5 mM glucose + 10% FBS, 0.000781 µM
# [13] = RPMI 5 mM glucose + 10% FBS, 0.00234 µM
# [14] = RPMI 5 mM glucose + 10% FBS, 0.00702 µM
# [15] = RPMI 5 mM glucose + 10% FBS, 0.0211 µM
# [16] = RPMI 5 mM glucose + 10% FBS, 0.0632 µM
# [17] = RPMI 5 mM glucose + 10% FBS, 0.19 µM
# [18] = RPMI 5 mM glucose + 10% FBS, 0.569 µM
# [19] = RPMI 5 mM glucose + 10% FBS, 1.71 µM
# [20] = RPMI 5 mM glucose + 10% FBS, 5.12 µM
# [21] = RPMI 5 mM glucose + 10% FBS, 15.4 µM
# [22] = RPMI 5 mM glucose + 10% FBS, 46.1 µM
# [23] = RPMI 5 mM glucose + 10% dialyzed FBS, 0.000781 µM
# [24] = RPMI 5 mM glucose + 10% dialyzed FBS, 0.00234 µM
# [25] = RPMI 5 mM glucose + 10% dialyzed FBS, 0.00702 µM
# [26] = RPMI 5 mM glucose + 10% dialyzed FBS, 0.0211 µM
# [27] = RPMI 5 mM glucose + 10% dialyzed FBS, 0.0632 µM
# [28] = RPMI 5 mM glucose + 10% dialyzed FBS, 0.19 µM
# [29] = RPMI 5 mM glucose + 10% dialyzed FBS, 0.569 µM
# [30] = RPMI 5 mM glucose + 10% dialyzed FBS, 1.71 µM
# [31] = RPMI 5 mM glucose + 10% dialyzed FBS, 5.12 µM
# [32] = RPMI 5 mM glucose + 10% dialyzed FBS, 15.4 µM
# [33] = RPMI 5 mM glucose + 10% dialyzed FBS, 46.1 µM
SMILES,cell viability [1],cell viability [2],cell viability [3],cell viability [4],cell viability [5],cell viability [6],cell viability [7],cell viability [8],cell viability [9],cell viability [10],cell viability [11],cell viability [12],cell viability [13],cell viability [14],cell viability [15],cell viability [16],cell viability [17],cell viability [18],cell viability [19],cell viability [20],cell viability [21],cell viability [22],cell viability [23],cell viability [24],cell viability [25],cell viability [26],cell viability [27],cell viability [28],cell viability [29],cell viability [30],cell viability [31],cell viability [32],cell viability [33]
CC(=O)N1CCN(c2ccc(OCc3nn(C)c(C)c3-c3cccc4c(CCCOc5cccc6ccccc56)c(C(=O)O)n(Cc5cccnc5)c34)cc2)CC1,92.6%,91.9%,106%,112%,107%,126%,115%,120%,122%,108%,108%,87.6%,78%,86.4%,93.6%,81.8%,103%,108%,115%,105%,104%,84.7%,101%,85.1%,115%,112%,119%,127%,112%,115%,109%,113%,104%
Oc1ccc(C2CCN(c3ccnc4ccccc34)CC2)cc1O,55.8%,98.9%,88.8%,93.5%,118%,94.1%,95.4%,89.5%,76.6%,56.3%,30.7%,56.9%,98%,93.6%,94.6%,106%,116%,96.7%,83%,62.3%,43.9%,13.6%,54.9%,92.2%,97.3%,114%,114%,115%,88.7%,96.2%,59.1%,45.9%,39.2%
C\C1=C\C(=O)C2=C(C=CC=C2)C1=O,95.9%,110%,102%,109%,126%,123%,106%,114%,111%,96.1%,80.4%,104%,101%,113%,111%,113%,106%,101%,89.2%,95.3%,95.9%,59.9%,94.7%,102%,114%,114%,112%,111%,117%,111%,84.3%,71.3%,50.6%
NC(=O)c1ncn([C@@H]2O[C@H](CO)[C@@H](O)[C@H]2O)n1,96.4%,110%,116%,119%,104%,106%,101%,106%,117%,117%,80.4%,105%,115%,118%,115%,112%,115%,95.2%,95.9%,103%,123%,76.9%,106%,118%,121%,110%,113%,108%,104%,118%,111%,142%,85.7%
CC(=O)O[C@@]1(CC[C@H]2[C@@H]3\C=C(C)/C4=C/C(=O)CC[C@]4(C)[C@H]3CC[C@]12C)C(C)=O,79.1%,80%,82%,82.7%,105%,99.4%,95.8%,99.2%,108%,98.4%,104%,89.3%,83.8%,86.7%,97.6%,93.5%,101%,100%,104%,95%,106%,99.7%,96.5%,96.7%,104%,109%,101%,100%,107%,115%,96.2%,108%,81.7%
O=C1C[C@@H](c2ccc(O)cc2)Oc2cc(O)cc(O)c21,123%,115%,122%,119%,119%,118%,125%,110%,116%,120%,106%,102%,91.4%,79.3%,83.3%,91.7%,83%,64.5%,77.7%,67.2%,80.4%,64%,124%,116%,130%,123%,124%,114%,122%,115%,121%,139%,88.5%
CC1=C(C=CC=C1)N2\C(=N/C3=C(C(=CC=C3)C)C2=O)C[N]4N=CC5=C4N=CN=C5N,99.5%,117%,119%,128%,124%,128%,121%,123%,125%,117%,121%,100%,124%,141%,113%,113%,136%,135%,135%,124%,131%,119%,,,,,,,,,,,
CC(=O)OCC(=O)[C@@]12\N=C(C)/O[C@@H]1C[C@H]3[C@@H]4CCC/5=C/C(=O)/C=C\[C@]5(C)[C@H]4[C@@H](O)C[C@]23C,75.3%,85.5%,87.8%,85.1%,68%,97%,97.8%,100%,92.5%,90.1%,24.9%,86.6%,103%,91.5%,102%,66.3%,109%,97.9%,113%,86.9%,86.6%,18.2%,101%,95.2%,107%,106%,80.7%,104%,105%,115%,86.8%,79.8%,19.4%
O=C(NC[C@H]1CN(c2ccc(N3CCOCC3=O)cc2)C(=O)O1)c1ccc(Cl)s1,89.8%,107%,104%,107%,104%,103%,125%,108%,116%,134%,118%,103%,113%,120%,114%,102%,117%,129%,109%,117%,123%,115%,109%,105%,118%,98.9%,116%,132%,120%,129%,136%,134%,122%
CN(C)CCc1c[nH]c2ccc(C[C@H]3COC(=O)N3)cc12,72%,89.4%,97.7%,95.1%,99.3%,108%,96%,88.2%,72.9%,29.7%,7.45%,78.3%,85.5%,89%,97%,90.9%,88.7%,88.2%,73.8%,47.8%,13.3%,5.94%,88.8%,94%,89.5%,99.8%,95.7%,96.3%,93.7%,80.8%,75.6%,26%,7.13%
CC\1=C(C(=O)N(\C=C1)C2=CC=C(C=C2)C3=NC=CO3)/C4=CC5=CN=C(N)N=C5C=C4,96.2%,95%,109%,99.8%,100%,103%,76.2%,84%,40.8%,36%,27%,87.3%,115%,127%,121%,108%,111%,97.4%,101%,38.5%,29.5%,21.3%,90%,104%,118%,102%,97.1%,97.4%,68.9%,72.1%,26.1%,20.4%,19.1%
CN1CCC(CC1)COC2=CN=C(N=C2)C3=CC(=CC=C3)CN4/N=C(\C=C/C4=O)C5=CC(=CC=C5)C#N,78.8%,105%,98%,102%,112%,117%,108%,104%,107%,89.9%,92.7%,67.6%,87.1%,85.4%,66.2%,67.5%,75.6%,79.9%,74.7%,66.5%,74.9%,73.2%,69.8%,103%,110%,114%,99.2%,91.4%,115%,104%,106%,87.3%,105%
N[S+](=O)([O-])c1cc(Cl)c(Cl)c([S+](N)(=O)[O-])c1,108%,95.8%,108%,109%,101%,90.5%,106%,104%,111%,39.1%,88.9%,85.2%,97%,111%,97.7%,119%,112%,116%,98.2%,116%,35.5%,84.6%,102%,86%,98.8%,101%,106%,97.9%,99.5%,105%,107%,35.6%,87.1%
CCC1(c2ccc(N)cc2)CCC(=O)NC1=O (stereo not given),114%,113%,127%,114%,118%,114%,107%,55.3%,108%,95.1%,96.6%,,,,,,,,,,,,,,,,,,,,,,
Clc1cc(Cl)cc(CNc2ncncc2-c2ccc3c(c2)OCO3)c1,93.3%,101%,95.7%,97.4%,89%,104%,92.2%,105%,90.4%,89.1%,29.7%,100%,97.4%,98.4%,94.5%,92.7%,110%,103%,86.6%,92.3%,86.6%,5.5%,90.5%,95.3%,102%,99.7%,90.5%,96.8%,80.4%,100%,105%,86.2%,28.3%
CC(C)Nc1cc(C(F)(F)F)cc2nc(NC(=O)c3cccnc3)nn12,113%,105%,101%,118%,119%,96.6%,102%,42.3%,26.5%,13.7%,5.96%,113%,112%,95.3%,110%,107%,89.2%,94.2%,18%,15.8%,8.3%,2.38%,126%,98.6%,116%,113%,102%,94%,101%,23.2%,16.3%,11.1%,4.75%
